The target of one test is T1, purified human HDAC6 (Homo sapiens, UniProt Q9UBN7).
T1 construct: purchased BPS Bioscience 5006
T1 sequence (Q9UBN7 1-1215): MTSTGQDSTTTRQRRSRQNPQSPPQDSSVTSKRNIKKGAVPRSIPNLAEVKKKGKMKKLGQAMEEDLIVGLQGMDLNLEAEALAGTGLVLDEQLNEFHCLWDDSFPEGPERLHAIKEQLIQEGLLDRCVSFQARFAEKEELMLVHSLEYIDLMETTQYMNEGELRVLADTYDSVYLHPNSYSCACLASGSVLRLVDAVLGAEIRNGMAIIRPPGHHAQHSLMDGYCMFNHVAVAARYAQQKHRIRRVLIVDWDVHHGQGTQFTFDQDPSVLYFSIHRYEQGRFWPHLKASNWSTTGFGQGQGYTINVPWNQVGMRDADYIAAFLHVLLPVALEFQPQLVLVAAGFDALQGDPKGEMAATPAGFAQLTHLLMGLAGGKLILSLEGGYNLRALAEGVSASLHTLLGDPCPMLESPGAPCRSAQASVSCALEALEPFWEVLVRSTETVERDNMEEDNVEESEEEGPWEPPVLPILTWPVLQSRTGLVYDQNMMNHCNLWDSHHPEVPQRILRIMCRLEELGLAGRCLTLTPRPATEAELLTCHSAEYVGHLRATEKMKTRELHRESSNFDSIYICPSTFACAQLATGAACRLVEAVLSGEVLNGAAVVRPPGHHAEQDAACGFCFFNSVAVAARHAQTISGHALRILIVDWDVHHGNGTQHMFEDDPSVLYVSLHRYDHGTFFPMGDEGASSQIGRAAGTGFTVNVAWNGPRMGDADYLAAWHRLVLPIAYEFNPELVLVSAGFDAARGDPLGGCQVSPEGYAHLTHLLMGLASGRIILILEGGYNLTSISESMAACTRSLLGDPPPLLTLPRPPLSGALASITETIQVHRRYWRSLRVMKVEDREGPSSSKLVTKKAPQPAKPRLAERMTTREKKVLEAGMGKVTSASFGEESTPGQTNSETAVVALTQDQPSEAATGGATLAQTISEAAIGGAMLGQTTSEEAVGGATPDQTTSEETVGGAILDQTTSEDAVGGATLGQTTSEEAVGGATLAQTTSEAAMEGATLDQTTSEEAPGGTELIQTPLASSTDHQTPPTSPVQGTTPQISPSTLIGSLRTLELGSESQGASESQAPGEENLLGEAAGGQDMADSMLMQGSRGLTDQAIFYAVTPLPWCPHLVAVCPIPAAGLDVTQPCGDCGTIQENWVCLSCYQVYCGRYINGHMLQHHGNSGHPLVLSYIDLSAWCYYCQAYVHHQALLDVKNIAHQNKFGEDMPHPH
In words: HDAC6 Enzyme Assay. To be noted: bin: greater than 500 nM and less than 1 μM (lower bound in nM, upper bound in μM). The test is classed as biochemical. In outline:
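Deacetylated product quantified after trypsin digestion as released AMC (340/460 nm), following a 1 h, 30 °C reaction of human HDAC6 with Ac-RGK(Ac)-AMC peptide, quenched by trichostatin A. IC50 derived from DMSO-normalized curves.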
The IC50 is the concentration at which inhibition is half-maximal. Read a high IC50 as weaker potency in that assay. `Cc1cc(C)c(C(=O)NC(C)c2cccc(C(=O)NO)c2)[nH]1` (stereo not drawn) [Compound I-91, N-(1-{3-[(hydroxyamino)carbonyl]phenyl}ethyl)-3,5-dimethyl-1H-pyrrole-2-carboxamide] gave an IC50 of 500 to 1000 nM.
Take `CC(NC(=O)c1cc(C(C)(C)C)nn1C)c1cccc(C(=O)NO)c1` (stereo not drawn) [Compound I-309, 3-tert-butyl-N-(1-{3-[(hydroxyamino)carbonyl]phenyl}ethyl)-1-methyl-1H-pyrazole-5-carboxamide]: the concentration for half-maximal inhibition (IC50) lay within 500 to 1000 nM.
On the same count and under the same terms, for `Cc1cc(C(=O)NC(c2ccc(C(=O)NO)cc2)C(C)(C)C)c(C)o1` (stereo not drawn) [Compound I-9, N-(1-{4-[(hydroxyamino)carbonyl]phenyl}-2,2-dimethylpropyl)-2,5-dimethyl-3-furamide] the value was 500 to 1000 nM.
Still for that read-out and setting: for `C[C@H](NC(=O)C1(C)CCCCC1)c1ccc(C(=O)NO)cc1` [Compound I-273, N-hydroxy-4-((1S)-1-{[(1-methylcyclohexyl)carbonyl]amino}ethyl)benzamide] the value was 500 to 1000 nM.

Staying with this test, now noted: bin: greater than 1 μM.
For the compound `C[C@@H](NC(=O)NC(C)(C)C)c1cccc(C(=O)NO)c1` [Compound I-320, 3-((1R)-1-{[(tert-butylamino)carbonyl]amino}ethyl)-N-hydroxybenzamide], the IC50 is over 1000 nM.
Same read-out and setting: for `Cc1noc(C)c1C(=O)NC(c1ccc(C(=O)NO)cc1)C(C)C` (stereo not drawn) [Compound I-238, N-(1-{4-[(hydroxyamino)carbonyl]phenyl}-2-methylpropyl)-3,5-dimethylisoxazole-4-carboxamide] the value was over 1000 nM; for `Cc1cc(C(=O)NC(C)c2cccc(C(=O)NO)c2)c(C)o1` (stereo not drawn) [Compound I-104, N-(1-{3-[(hydroxyamino)carbonyl]phenyl}ethyl)-2,5-dimethyl-3-furamide], over 1000 nM; for `CC(NC(=O)Cc1cc(C(F)(F)F)cc(C(F)(F)F)c1)c1cccc(C(=O)NO)c1` (stereo not drawn) [Compound I-362, 3-[1-({[3,5-bis(trifluoromethyl)phenyl]acetyl}amino)ethyl]-N-hydroxybenzamide], over 1000 nM.
For the compound `CC(NC(=O)CC1CCCC1)c1ccc(C(=O)NO)cc1` (stereo not drawn) [Compound I-370, 4-{1-[(cyclopentylacetyl)amino]ethyl}-N-hydroxybenzamide], the IC50 is over 1000 nM.
Compound `COc1cc(C(=O)NO)ccc1C(C)NC(=O)C(C)(C)C` (stereo not drawn) [Compound I-484, 4-{1-[(2,2-dimethylpropanoyl)amino]ethyl}-N-hydroxy-3-methoxybenzamide] showed an IC50 of over 1000 nM.
Still for that read-out and setting: then `COc1ccc(CCCC(=O)NC(C)c2ccc(C(=O)NO)cc2)cc1` (stereo not drawn) [Compound I-70, N-hydroxy-4-(1-{[4-(4-methoxyphenyl)butanoyl]amino}ethyl)benzamide], with over 1000 nM; and `CC(C)CC(=O)NC(C)c1ccc(C(=O)NO)cc1` (stereo not drawn) [Compound I-111, N-hydroxy-4-{1-[(3-methylbutanoyl)amino]ethyl}benzamide], with over 1000 nM.

The same test, now with this note: purified human HDAC6, substrate Ac-Arg-Gly-Lys(Ac)-AMC, 1 hour at 30° C.; reported as bins.
With `CC(C)(C)C(NC(=O)c1ccc(-c2ccccc2)cc1)c1ccc(C(=O)NO)cc1` (stereo not drawn) [Compound I-355, N-(1-{4-[(hydroxyamino)carbonyl]phenyl}-2,2-dimethylpropyl)biphenyl-4-carboxamide], the IC50 lay within 100 to 500 nM.
`CC(NC(=O)c1ccc2ncsc2c1)c1ccc(C(=O)NO)cc1` (stereo not drawn) [Compound I-360, N-(1-{4-[(hydroxyamino)carbonyl]phenyl}ethyl)-1,3-benzothiazole-6-carboxamide] came in with an IC50 of under 100 nM.
On the same count and under the same terms, for `CC(C)[C@@H](NC(=O)Nc1ccccc1-c1ccccc1)c1ccc(C(=O)NO)cc1` [Compound I-515, 4-((1R)-1-{[(biphenyl-2-ylamino)carbonyl]amino}-2-methylpropyl)-N-hydroxybenzamide] the value was under 100 nM; for `CC(C)C(NC(=O)c1ccc2nsnc2c1)c1ccc(C(=O)NO)cc1` (stereo not drawn) [Compound I-135, N-(1-{4-[(hydroxyamino)carbonyl]phenyl}-2-methylpropyl)-2,1,3-benzothiadiazole-5-carboxamide], under 100 nM.
The same measure, in the same setting: then `C[C@@H](NC(=O)C12CC3CC(CC(C3)C1)C2)c1ccc(C(=O)NO)cc1` [Compound I-209, N-((1R)-1-{4-[(hydroxyamino)carbonyl]phenyl}ethyl)adamantane-1-carboxamide], with under 100 nM.
Same read-out and setting: then `CC(C)C(NC(=O)c1ccc(F)cc1)c1ccc(C(=O)NO)cc1` (stereo not drawn) [Compound I-40, 4-fluoro-N-(1-{4-[(hydroxyamino)carbonyl]phenyl}-2-methylpropyl)benzamide], with 100 to 500 nM.
As to `CC(NC(=O)C1(C)CC1)c1ccc(C(=O)NO)cc1` (stereo not drawn) [Compound I-154, N-hydroxy-4-(1-{[(1-methylcyclopropyl)carbonyl]amino}ethyl)benzamide], the IC50 was under 100 nM.
As for `COc1cccc(S(=O)(=O)NC(C)c2ccc(C(=O)NO)cc2)c1` (stereo not drawn) [Compound I-23, N-hydroxy-4-(1-{[(3-methoxyphenyl)sulfonyl]amino}ethyl)benzamide], the IC50 lay in the range of 100 to 500 nM.
Same read-out and setting: then `CCCC(=O)NC(C)c1ccc(C(=O)NO)cc1` (stereo not drawn) [Compound I-243, 4-[1-(butyrylamino)ethyl]-N-hydroxybenzamide], with under 100 nM; and `CC(NC(=O)C1(C)CCCCC1)c1ccc(C(=O)NO)cc1` (stereo not drawn) [Compound I-132, N-hydroxy-4-(1-{[(1-methylcyclohexyl)carbonyl]amino}ethyl)benzamide], with under 100 nM.
`Cc1ccccc1S(=O)(=O)NC(C)c1ccc(C(=O)NO)cc1` (stereo not drawn) [Compound I-232, N-hydroxy-4-(1-{[(2-methylphenyl)sulfonyl]amino}ethyl)benzamide] registered an IC50 of 100 to 500 nM.
As to `Cc1ccc(C(=O)NC(C)c2ccc(C(=O)NO)cc2)s1` (stereo not drawn) [Compound I-147, N-(1-{4-[(hydroxyamino)carbonyl]phenyl}ethyl)-5-methylthiophene-2-carboxamide], the IC50 is under 100 nM.
As for `CC(NC(=O)Nc1c(F)cccc1F)c1ccc(C(=O)NO)cc1` (stereo not drawn) [Compound I-261, 4-[1-({[(2,6-difluorophenyl)amino]carbonyl}amino)ethyl]-N-hydroxybenzamide], the IC50 was under 100 nM.
`Cc1onc(-c2ccccc2)c1NC(=O)NC(C)c1ccc(C(=O)NO)cc1` (stereo not drawn) [Compound I-305, N-hydroxy-4-[1-({[(5-methyl-3-phenylisoxazol-4-yl)amino]carbonyl}amino)ethyl]benzamide] came in with an IC50 of 100 to 500 nM.
Still for that read-out and setting: for `CC(C)[C@@H](NC(=O)N[C@H](C)c1ccccc1)c1ccc(C(=O)NO)cc1` [Compound I-514, N-hydroxy-4-[(1R)-2-methyl-1-({[(1R)-1-phenylethyl]carbamoyl}amino)propyl]benzamide] the value was under 100 nM; for `CC(C)C(NC(=O)c1cccc2ccccc12)c1ccc(C(=O)NO)cc1` (stereo not drawn) [Compound I-331, N-(1-{4-[(hydroxyamino)carbonyl]phenyl}-2-methylpropyl)-1-naphthamide], 100 to 500 nM; for `CC(C)C(NC(=O)C12CC3CC(CC(C3)C1)C2)c1ccc(C(=O)NO)cc1` (stereo not drawn) [Compound I-58, N-(1-{4-[(hydroxyamino)carbonyl]phenyl}-2-methylpropyl)adamantane-1-carboxamide], under 100 nM.
Consider `C[C@H](NC(=O)c1cc2ccccc2s1)c1cccc(C(=O)NO)c1` [Compound I-240, N-((1S)-1-{3-[(hydroxyamino)carbonyl]phenyl}ethyl)-1-benzothiophene-2-carboxamide], for which the IC50 was 100 to 500 nM.
On the same count and under the same terms, then `Cc1cc(C)c(S(=O)(=O)NC(C)c2ccc(C(=O)NO)cc2)c(C)c1` (stereo not drawn) [Compound I-176, N-hydroxy-4-{1-[(mesitylsulfonyl)amino]ethyl}benzamide], with 100 to 500 nM; and `C[C@@H](NC(=O)c1cccn1C)c1ccc(C(=O)NO)cc1` [Compound I-102, N-((1R)-1-{4-[(hydroxyamino)carbonyl]phenyl}ethyl)-1-methyl-1H-pyrrole-2-carboxamide], with under 100 nM; and `C[C@@H](NC(=O)c1ccc(-c2ccccc2)cc1)c1cccc(C(=O)NO)c1` [Compound I-121, N-((1R)-1-{3-[(hydroxyamino)carbonyl]phenyl}ethyl)biphenyl-4-carboxamide], with 100 to 500 nM.
